Measured values as given in publication PMC10993450, “New benzimidazole derivative compounds with in vitro fasciolicidal properties” (Parasites & Vectors, 2024).
Several values for one entry are separate records, joined by “and”; a condition that tells them apart may be missing. Identical values can stand only once. Entries after “also recorded” stand apart in the source; their conditions may differ.

system: Fasciola hepatica eggs (ABZ-susceptible isolate); assay: Egg hatch test (EHT), ABZ-susceptible isolates; format: cell-based; conditions: 10 µM; ABZ-susceptible isolate; mean ± SEM
Experimental: Eggs were recovered from gallbladders of cattle naturally infected with F. hepatica at the municipal slaughterhouse of León (Spain). For this, the bile of the gallbladders was filtered through sieves of different diameter size pores (500, 150, and 20 µm) using pressurized tap water. Eggs retained on the 20 µm pore size sieve were collected and stored at 4 °C in darkness until required within a maximum period of 2 months.
The susceptibility of the isolates to ABZ was confirmed by the egg hatch test (EHT) using an ABZ discriminant dose (DD) of 0.5 µM [23]. The technique is described in more detail below.
The in vitro anthelmintic activity of a total of 70 BZDs was initially tested on F. hepatica eggs recovered from gallbladders of cattle naturally infected with ABZ-susceptible isolates. The first screening was performed using a fixed concentration of 50 µM. […] Therefore, only BZDs with ovicidal activities over 80% progressed to the next assays at 10 µM. […] At this last concentration, the ovicidal effect of ABZ, ABZSO, and OXF was also evaluated.
(§1) The in vitro EHT described in the current study was based on previous studies. Briefly, 100–120 eggs were incubated in 990 µL of water and 10 μL of each working solution at 25 °C in the dark for a period of 12 h. After incubation, eggs were gently washed with tap water three times to facilitate compound removal and kept in darkness at 25 °C for 14 days. After this period, eggs were exposed to light for 2 h to stimulate the hatching of eggs. Then, hatched and unhatched eggs were evaluated and counted using an optical microscope. The term “hatched eggs” includes both hatched and embryonated eggs. Negative control eggs were incubated with 10 μL of DMSO in 990 μL of water, reaching a maximum DMSO concentration of 1% (v/v), while ABZ at 0.5 µM was used as positive control. Each compound at a specific concentration was tested in triplicate in the same EHT and repeated at least two different days.
With the aim to characterize the susceptibility of isolates from naturally infected cattle, the drug used in the EHT was ABZ, tested at a discriminant dose of 0.5 μM. Drug susceptibility is assumed when the ovicidal activity is over 70%, resistance when is lower than 40%, and a suspicion of resistance when activity is between these values at 0.5 μM.
(§2) The efficacy of each compound and drug was calculated as its ovicidal activity following the formula below: Ovicidal activity%=100×%eggs hatched in negative control-%egg hatched after drug incubation/%egg hatched in control.

SMILES | % Ovicidal activity
Cc1ccc2[nH]c(-c3ccc(Cl)cc3)nc2c1 [BZD05] | around 50%
COc1ccc(-c2nc3cc(OC)ccc3[nH]2)cc1 [BZD20] | 24.59 ± 05.71%

same assay, conditions: 50 µM; ABZ-susceptible isolate; mean ± SEM

SMILES | % Ovicidal activity
COc1ccc(-c2nc3ccccc3[nH]2)cc1 [BZD01] | 20.07 ± 9.32%
Clc1ccc(-c2nc3ccccc3[nH]2)cc1 [BZD02] | 09.55 ± 5.68%
Brc1ccc(-c2nc3ccccc3[nH]2)cc1 [BZD03] | 01.93 ± 1.11%
Cc1ccc2[nH]c(-c3ccc(Cl)cc3)nc2c1 [BZD05] | 35.59 ± 9.00%
Cc1ccc(C)c(-c2nc3cc(C)ccc3[nH]2)c1 [BZD06] | 02.26 ± 1.30% and 04.63 ± 2.27%
COc1ccc(-c2nc3cc(C)ccc3[nH]2)cc1[N+](=O)[O-] [BZD07] | 07.13 ± 3.45%
O=[N+]([O-])c1ccc(-c2nc3cc(Cl)ccc3[nH]2)cc1 [BZD10] | 23.55 ± 8.06%
Cc1ccc(C)c(-c2nc3cc(Cl)ccc3[nH]2)c1 [BZD11] | 03.28 ± 1.45%
COc1ccc(-c2nc3cc(Cl)ccc3[nH]2)cc1[N+](=O)[O-] [BZD12] | 00.55 ± 9.45%
COc1ccc(-c2nc3cc(Cl)ccc3[nH]2)cc1N [BZD13] | 04.40 ± 1.38%
COc1ccc(-c2nc3cc([N+](=O)[O-])ccc3[nH]2)cc1 [BZD14] | 15.55 ± 7.35%
Cc1ccc(C)c(-c2nc3cc([N+](=O)[O-])ccc3[nH]2)c1 [BZD16] | 00.33 ± 0.33%
COc1ccc(-c2nc3cc([N+](=O)[O-])ccc3[nH]2)cc1[N+](=O)[O-] [BZD17] | 00.00 ± 0.00%
COc1ccc(-c2nc3cc(N)ccc3[nH]2)cc1 [BZD18] | 02.82 ± 1.42%
COc1ccc(-c2nc3cc(NC(=O)c4ccccn4)ccc3[nH]2)cc1 [BZD19] | 13.61 ± 3.64%
COc1ccc2[nH]c(-c3ccc(Cl)cc3)nc2c1 [BZD21] | 06.88 ± 6.88%
COc1ccc2nc(-c3ccc(Br)cc3)[nH]c2c1 [BZD22] | 67.47 ± 5.64%
COc1ccc(-c2nc3cc(C)c(C)cc3[nH]2)cc1 [BZD23] | 59.08 ± 3.79%
COc1ccc(-c2nc3cc(Cl)c(Cl)cc3[nH]2)cc1 [BZD24] | 16.09 ± 6.50%
Cc1ccc(S(=O)(=O)Nc2nc3cc(C)ccc3[nH]2)cc1 [BZD25] | 3.94 ± 1.37%
Cc1ccc2[nH]c(NS(=O)(=O)c3ccc4ccccc4c3)nc2c1 [BZD26] | 2.23 ± 0.99%
COc1ccc(CNc2nc3cc(C)ccc3[nH]2)c(OC)c1OC [BZD28] | 01.02 ± 0.62%
Cc1ccc2[nH]c(NCc3ccc4ccccc4c3)nc2c1 [BZD29] | 04.65 ± 1.98%

SMILES | % Ovicidal activity
COc1ccc(CNc2nc3cc(Cl)ccc3[nH]2)cc1 [BZD33] | 05.52 ± 2.49%
COc1cc(CNc2nc3cc(Cl)ccc3[nH]2)cc(OC)c1OC [BZD34] | 00.39 ± 0.38%
Clc1ccc2[nH]c(NCc3ccco3)nc2c1 [BZD35] | 37.65 ± 13.55%
COc1ccc2[nH]c(NCc3ccccc3)nc2c1 [BZD36] | 70.94 ± 2.32%
COc1ccc(CNc2nc3cc(OC)ccc3[nH]2)cc1 [BZD37] | 08.66 ± 1.86%
COc1ccc2[nH]c(NCc3cccs3)nc2c1 [BZD40] | 17.73 ± 5.12%
COc1ccc(CNc2nc3cc(C)c(C)cc3[nH]2)cc1 [BZD41] | 05.76 ± 3.12%
COc1cc(CNc2nc3cc(C)c(C)cc3[nH]2)cc(OC)c1OC [BZD42] | 10.73 ± 3.26%
Clc1cc2nc(NCc3ccccc3)[nH]c2cc1Cl [BZD43] | 55.36 ± 3.12%
COc1cc(CNc2nc3cc(Cl)c(Cl)cc3[nH]2)cc(OC)c1OC [BZD45] | 00.91 ± 0.61%
COc1ccc(C(=O)Nc2nc3cc(C)ccc3[nH]2)cc1 [BZD48] | 09.72 ± 2.50%
Cc1ccc2[nH]c(NC(=O)c3cc([N+](=O)[O-])ccc3Cl)nc2c1 [BZD50] | 07.62 ± 2.71%
COc1cc(OC)cc(C(=O)Nc2nc3cc(C)ccc3[nH]2)c1 [BZD51] | 05.05 ± 2.51%
COc1cc(C(=O)Nc2nc3cc(C)ccc3[nH]2)cc(OC)c1OC [BZD52] | 02.50 ± 1.26%
Cc1ccc2[nH]c(NC(=O)Cc3ccc4ccccc4c3)nc2c1 [BZD53] | 01.07 ± 0.62%
Cc1ccc2[nH]c(NC(=O)Cc3cccs3)nc2c1 [BZD54] | 07.20 ± 3.47%
COc1ccc(C(=O)Nc2nc3cc(Cl)ccc3[nH]2)cc1 [BZD57] | 60.39 ± 10.70%
COc1ccc(C(=O)Nc2nc3cc(OC)ccc3[nH]2)cc1 [BZD60] | 01.08 ± 0.79%
Cc1cc2nc(NC(=O)c3cccc(Cl)c3)[nH]c2cc1C [BZD65] | 01.61 ± 0.82%
COc1ccc(C(=O)Nc2nc3cc(C)c(C)cc3[nH]2)cc1 [BZD66] | 00.26 ± 0.25%
O=C(Nc1nc2cc(Cl)c(Cl)cc2[nH]1)c1ccccc1 [BZD67] | 03.33 ± 2.51%
COc1ccc(C(=O)Nc2nc3cc(Cl)c(Cl)cc3[nH]2)cc1 [BZD70] | 02.75 ± 1.16%

same assay, conditions: Fasciola hepatica, 5 µM; mean ± SEM; read-out: % Ovicidal activity susceptible isolate

SMILES | killing at 5 µM
CCC[S+]([O-])c1ccc2[nH]c(NC(=O)OC)nc2c1 (centres unmarked) [ABZSO, albendazole sulfoxide, reference compound] | > 98%
COC(=O)Nc1nc2ccc([S+]([O-])c3ccccc3)cc2[nH]1 (centres unmarked) [OXF, oxfendazole, reference compound] | > 98%

system: Fasciola hepatica eggs (ABZ-resistant isolate); assay: Egg hatch test (EHT), ABZ-resistant isolate; format: cell-based; conditions: 5 µM; mean ± SEM
Description: F. hepatica eggs were recovered after washing the gallbladder of three naturally infected sheep belonging to a flock suspected to be resistant to ABZ. From these eggs, metacercariae were produced at the Centro de Investigaciones de Mabegondo (AGACAL, Xunta de Galicia, Spain) following a previous protocol. These metacercariae were used to infect eight sheep with a dose of 200 metacercariae. The infection was confirmed individually 3 months after the infection by coprological analysis using a sedimentation technique. At that point, sheep were randomly located in two groups of four animals: one treated with a therapeutic dose of ABZ (7.5 mg/kg) and the other one only with water, as control group. To assess the efficacy of ABZ in this isolate, all sheep were humanely euthanized by an intravenous administration of a lethal dose of sodium pentobarbital (Dolethal®, Vetoquinol, Spain) 2 weeks later for fluke recovery and counting. Afterwards, the in vivo efficacy of ABZ was calculated as the percentage of adult worm reduction compared with the untreated control. Additionally, the number of eggs per gram of feces (EPG) was estimated on the treatment day (mentioned as day 0) and 14 days later to determine drug efficacy by means of the fecal egg count reduction test (FECRT).
During the necropsy, gallbladders from sheep belonging to the untreated group were taken to collect the eggs and carry out the in vitro EHT, while flukes collected from livers were used to conduct the adult viability test (AVT).
Those BZDs with an activity higher than 80% at a concentration of 10 µM were also screened on eggs and adults from the ABZ resistant isolate.
as §1, §2

SMILES | % Ovicidal activity resistant isolate
CCC[S+]([O-])c1ccc2[nH]c(NC(=O)OC)nc2c1 (centres unmarked) [ABZSO, albendazole sulfoxide, reference compound] | 26% and 26.12 ± 11.87%
COC(=O)Nc1nc2ccc([S+]([O-])c3ccccc3)cc2[nH]1 (centres unmarked) [OXF, oxfendazole, reference compound] | 3% and 03.41 ± 02.08%

same assay, conditions: 10 µM as printed

SMILES | Ovicidal activity on the resistant isolate
CCC[S+]([O-])c1ccc2[nH]c(NC(=O)OC)nc2c1 (centres unmarked) [ABZSO, albendazole sulfoxide, reference compound] | 26%
COC(=O)Nc1nc2ccc([S+]([O-])c3ccccc3)cc2[nH]1 (centres unmarked) [OXF, oxfendazole, reference compound] | 3.5%

system: Fasciola hepatica adults (ABZ-resistant isolate); assay: Adult viability test (AVT), motility inhibition; format: cell-based; conditions: 10 µM; ABZ-resistant isolate
Experimental: The adult viability test was based on a previous study carried out by Kirchhofer et al. with minor modifications. In brief, adult F. hepatica flukes were recovered from bile ducts of infected sheep with the resistant isolate. Flukes were quickly washed with 0.9% (w/v) NaCl and placed in six-well plates (Costar, Spain) with RPMI 1640 culture medium (Sigma-Aldrich®, Spain) supplemented with antibiotics (50 μg/mL streptomycin and 50 IU/mL penicillin; Sigma-Aldrich®, Spain) and 80 μg/mL of a hemin solution at 37 °C.
To monitor the anthelmintic effect of BZDs and the commercial drug ABZ, two flukes per well were incubated up to 72 h at a final concentration of 10 µM. DMSO at 0.5% was used as negative control. The individual movement of each fluke was examined using an inverted microscope at 24, 48, and 72 h. The activity of the compounds was estimated as motility inhibition, using a scale of fluke viability ranging from 3 (normal movements) to 0 (death, no movement observed for 2 min). All tests were repeated at least twice at different days.
Additionally, the percentage of motility inhibition for each compound was calculated from […] to 48 and 72 h after treatment using the following formula: 100 × (mean of the motility score of BZD at 24 h − mean of the motility score of BZD at 48 or 72 h)/(mean of the motility score of BZD at 24 h).
For the AVT, statistical analysis was performed using GraphPad Prism version 8.0.2. The normality of the motility inhibition scores was assessed using the Shapiro–Wilk test. Then, differences among scores at the three time points (24, 48, and 72 h) were evaluated using the Friedman test. In cases where significant differences were observed, post hoc analysis was conducted using the Nemenyi test for multiple comparisons. Comparisons with a P value < 0.05 were considered statistically significant.

SMILES | Motility inhibition of adults after 72 h of incubation (in words; significance vs 24 h)
CCC[S+]([O-])c1ccc2[nH]c(NC(=O)OC)nc2c1 (centres unmarked) [ABZSO, albendazole sulfoxide, reference compound] | nor those with ABZSO or BZD46, exhibited any significant motility inhibition; also recorded: no evidence of inhibition; also recorded: did not produce any motility alteration

same assay, conditions: Fasciola hepatica, read-out: % Adult motility inhibition 48 h

SMILES | inhibition at 10 µM
CCC[S+]([O-])c1ccc2[nH]c(NC(=O)OC)nc2c1 (centres unmarked) [ABZSO, albendazole sulfoxide, reference compound] | 25%

same assay, conditions: Fasciola hepatica, read-out: % Adult motility inhibition 72 h

SMILES | inhibition at 10 µM
CCC[S+]([O-])c1ccc2[nH]c(NC(=O)OC)nc2c1 (centres unmarked) [ABZSO, albendazole sulfoxide, reference compound] | 25%
